Data reported in EP0169787B1, “Use of oligonucleotides bonded to an intercalating agent as drugs” (priority 1984, dated 1986).
Like-named read-outs stand apart in the source and are kept apart here.

Assays:
[1] = test system: virus SV40; assay: Inhibition of SV40 multiplication (cytopathogenic effect) in CV1 cell cultures; format: cell-based; conditions: 3 jours, témoins 75
[2] = test system: A/Victoria (H3N2); format: cell-based; conditions: cellules MDCK; for Pourcentage de destruction cellulaire Cultures infectées (effet cytopathogène) par A/Victoria (H3N2): 3 jours
[3] = test system: cellules CV1; format: cell-based, singe
Description: La dilution de virus dans un tampon phosphate isotonique a été choisie de façon […] cultures témoins environ 75% de destruction cellulaire (75% d'effet cytopathogène) après 3 jours d'incubation. Après 1 heure de contact à 37°C, l'inocu- lum […] du même milieu contenant ou non les produits à étudier sont ajoutés. […] Des cultures de cellules non infectées par le virus et traitées avec les produits ont été aussi examinées pour […] cytotoxiques éventuels. Les pourcentages de destruction cellulaire dans les cultures infectées (effet cytopathogène) et dans les cultures non infectées (effet cytotoxique des produits) sont indiqués dans le tableau V.

Row | SMILES | Pourcentage de destruction cellulaire Cultures infectées par SV40 (effet cytopathogène) ([1]; 0,5 µg/ml) | Pourcentage de destruction cellulaire Cultures infectées par SV40 (effet cytopathogène) ([1]; 0,5 µg/ml, listed as Acr(CH2)50H) | Pourcentage de destruction cellulaire Cultures infectées par SV40 (effet cytopathogène) ([1]; 0,25 µg/ml) | Pourcentage de destruction cellulaire Cultures infectées par SV40 (effet cytopathogène) ([1]; 0,25 µg/ml, listed as Acr(CH2)50H) | Pourcentage de destruction cellulaire Cultures infectées par SV40 (effet cytopathogène) ([1]; 1,0 µg/ml) | Pourcentage de destruction cellulaire Cultures infectées par SV40 (effet cytopathogène) ([1]; 2,0 µg/ml) | Pourcentage de destruction cellulaire Cultures infectées (effet cytopathogène) par A/Victoria (H3N2) ([2]; 0,5 µg/ml) | Pourcentage de destruction cellulaire Cultures infectées (effet cytopathogène) par A/Victoria (H3N2) ([2]; 0,25 µg/ml) | Pourcentage de destruction cellulaire Cultures infectées (effet cytopathogène) par A/Victoria (H3N2) ([2]; 1,0 µg/ml) | effet inhibiteur de la multiplication du virus grippal A/Victoria (H3N2) ([2]; result in words) | effet cytotoxique / toxicité vis-à-vis des cellules saines [3]
1 | COc1ccc2nc3cc(Cl)ccc3c(NCCCCCO)c2c1 [Acr(CH2)5OH, méthoxy-2 chloro-6 (ω-hydroxypentyl-amino)-9 acridine] | 50% | n'exerce pas d'effet inhibiteur significatif | 75% | n'exerce pas d'effet inhibiteur significatif | 75% | 100% | 100% | 100% | 100% | dépourvu d'activité | –
2 | COc1ccc2nc3cc(Cl)ccc3c(NCCCCCCO)c2c1 [HO(CH2)6 Z", méthoxy-2-chloro-6(ω-hydroxyhexylamino)-9 acridine] | – | – | – | – | – | – | – | – | – | – | trop important
